Drawing on patent US9815796B2 (Merck Sharp & Dohme Corp., priority 2013, dated 2017), this text covers Ki for 11 compounds.

SMILES strings stand for the structures. Read-outs that look alike come from different tables or passages of the source.

One assay concerns the target Rhesus PDE2A3 (Macaca mulatta, UniProt B3VTJ2). Nature of the assay: PDE2 fluorescence polarization (IMAP FP) inhibition assay, rhesus enzyme. Type of assay: biochemical, rhesus macaque. The essentials: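 Rhesus PDE2A3 came from lysate of transiently transfected AD293 cells, diluted to give 20% substrate conversion. Substrate was 50 nM FAM-cAMP with 1 uM cGMP activator in Tris pH 7.2/MgCl2 buffer, run 60 min at room temperature over 10-point 3-fold dilutions in 1% DMSO. Read-out was IMAP fluorescence polarization (mP) after ≥1 h binding.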

Another assay deals with human PDE2A1 (Homo sapiens (Human), UniProt O00408). The experiment in a line: IMAP FP PDE selectivity panel, human PDE2A1. Type of assay: biochemical. The essentials: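 GST-tagged human PDE2A1 expressed in insect cells, run at room temperature for 60 min with 50 nM FAM-cAMP containing 1000 nM cGMP, pH 7.2 Tris/MgCl2 buffer. IMAP fluorescence polarization read after binding step.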
Sequence of human PDE2A1 (O00408 other isoform, or with tags, fused parts or gaps): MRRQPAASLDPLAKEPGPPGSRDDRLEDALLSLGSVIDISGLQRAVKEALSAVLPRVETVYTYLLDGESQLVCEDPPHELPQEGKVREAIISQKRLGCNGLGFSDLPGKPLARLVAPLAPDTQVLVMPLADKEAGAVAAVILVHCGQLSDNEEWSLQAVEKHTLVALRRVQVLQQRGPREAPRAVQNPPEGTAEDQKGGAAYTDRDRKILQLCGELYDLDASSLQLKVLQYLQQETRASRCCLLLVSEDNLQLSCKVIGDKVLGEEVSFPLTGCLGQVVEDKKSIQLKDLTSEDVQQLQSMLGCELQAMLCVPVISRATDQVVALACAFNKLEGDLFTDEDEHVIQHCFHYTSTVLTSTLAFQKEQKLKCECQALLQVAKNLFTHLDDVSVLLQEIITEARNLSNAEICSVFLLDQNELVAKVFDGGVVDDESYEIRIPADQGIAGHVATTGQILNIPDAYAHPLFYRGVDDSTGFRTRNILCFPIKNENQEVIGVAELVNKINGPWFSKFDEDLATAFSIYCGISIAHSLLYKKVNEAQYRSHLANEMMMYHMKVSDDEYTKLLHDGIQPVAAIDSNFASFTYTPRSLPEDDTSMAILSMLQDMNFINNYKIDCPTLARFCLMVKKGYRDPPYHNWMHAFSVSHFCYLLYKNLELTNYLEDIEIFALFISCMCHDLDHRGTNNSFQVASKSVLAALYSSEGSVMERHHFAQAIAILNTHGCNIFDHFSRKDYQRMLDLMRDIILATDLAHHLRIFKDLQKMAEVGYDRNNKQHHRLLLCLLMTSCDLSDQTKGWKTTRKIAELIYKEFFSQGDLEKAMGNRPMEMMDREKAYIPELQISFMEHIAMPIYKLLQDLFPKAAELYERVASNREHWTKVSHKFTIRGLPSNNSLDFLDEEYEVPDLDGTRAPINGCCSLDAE

Setting [1] is: Rhesus PDE2, Lab A, read-out: Rhesus PDE2 Ki (nM) - Lab A.
The mark [2] stands for this setting: Rhesus PDE2, Lab B, read-out: Rhesus PDE2 Ki (nM) - Lab B.
Where [3] appears, read: Human PDE2, Lab B, read-out: Human PDE2 Ki (nM) - Lab B.
The mark [4] stands for this setting: Human PDE2, Lab A, read-out: Human PDE2 Ki (nM) - Lab A.

Sequence of Rhesus PDE2A3 (B3VTJ2 1-941): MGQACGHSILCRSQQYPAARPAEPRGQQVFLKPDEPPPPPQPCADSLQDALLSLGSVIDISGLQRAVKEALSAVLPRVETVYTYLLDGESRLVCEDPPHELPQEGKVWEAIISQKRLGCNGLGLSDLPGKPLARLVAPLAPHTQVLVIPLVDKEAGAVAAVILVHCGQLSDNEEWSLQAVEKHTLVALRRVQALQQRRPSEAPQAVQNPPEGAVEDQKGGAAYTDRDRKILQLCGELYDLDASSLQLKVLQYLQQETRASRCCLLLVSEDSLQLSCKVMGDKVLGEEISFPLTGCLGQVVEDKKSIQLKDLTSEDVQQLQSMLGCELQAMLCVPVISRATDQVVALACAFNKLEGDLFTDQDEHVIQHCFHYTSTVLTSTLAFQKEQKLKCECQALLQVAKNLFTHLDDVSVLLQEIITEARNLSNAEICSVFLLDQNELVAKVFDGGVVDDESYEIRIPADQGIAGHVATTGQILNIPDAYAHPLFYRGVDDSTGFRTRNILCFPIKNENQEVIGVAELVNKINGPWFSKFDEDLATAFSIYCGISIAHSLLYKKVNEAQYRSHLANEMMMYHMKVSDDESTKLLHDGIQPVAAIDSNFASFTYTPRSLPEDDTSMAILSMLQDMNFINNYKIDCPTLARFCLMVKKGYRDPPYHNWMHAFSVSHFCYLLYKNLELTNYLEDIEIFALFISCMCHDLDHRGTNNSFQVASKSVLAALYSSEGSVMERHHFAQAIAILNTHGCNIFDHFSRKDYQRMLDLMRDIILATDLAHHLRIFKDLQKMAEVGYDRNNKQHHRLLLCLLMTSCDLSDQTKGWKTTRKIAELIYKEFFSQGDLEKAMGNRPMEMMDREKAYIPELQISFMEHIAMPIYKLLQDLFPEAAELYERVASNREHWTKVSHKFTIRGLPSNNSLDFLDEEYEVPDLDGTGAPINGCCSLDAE

In the case of `CSCC(NC(=O)c1cc(=O)[nH]c(-c2ccccc2)n1)c1ccc(C(F)(F)F)cc1` (stereo not shown) [Example 341, N-{2-(methylsulfanyl)-1-[4-(trifluoromethyl)phenyl]ethyl}-6-oxo-2-phenyl-1,6-dihydropyrimidine-4-carboxamide], the Ki was about 11 nM at Rhesus PDE2A3 (setting [1]), 24 nM on Rhesus PDE2A3 (setting [2]) and 19 nM on human PDE2A1 (setting [3]).
Consider `CC[C@@H](NC(=O)c1cc(=O)[nH]c(Cc2ccc(OC)cc2)n1)c1ccc(C(F)(F)F)c(F)c1` [Example 483, N-{(1R)-1-[3-fluoro-4-(trifluoromethyl)phenyl]propyl}-2-(4-methoxybenzyl)-6-oxo-1,6-dihydropyrimidine-4-carboxamide], for which the Ki on Rhesus PDE2A3 (setting [2]) turned out to be 3 nM; on human PDE2A1 (setting [3]), 2.9 nM.
Turning to `Cc1nc(C(=O)NC(C)c2ccc(C(C)C)cc2)cc(=O)[nH]1` (single isomer, unassigned) [Example 305, (R)- or (S)-2-methyl-N-{1-[4-(1-methylethyl)phenyl]ethyl}-6-oxo-1,6-dihydropyrimidine-4-carboxamide], the inhibition constant (Ki) came to 26 nM at Rhesus PDE2A3 (setting [1]) and 20 nM at human PDE2A1 (setting [4]).
In the case of `CC(C)(NC(=O)c1cc(=O)[nH]c(C2CC2)n1)c1ccc(OC(F)(F)F)c(F)c1` [Example 198], the inhibition constant Ki at Rhesus PDE2A3 (setting [1]) was 96 nM; at human PDE2A1 (setting [4]), 59 nM.
In the same order, the values of `CCc1ccc(C(C)NC(=O)c2cc(=O)[nH]c(C)n2)cc1` (stereo not shown) [Example 268, N-[1-(4-ethylphenyl)ethyl]-2-methyl-6-oxo-1,6-dihydropyrimidine-4-carboxamide] are 146 nM and 83 nM.
Turning to `C[C@@H](NC(=O)c1cc(=O)[nH]c(-c2ccccc2)n1)c1ccc(Cl)cc1` [Example 418, N-[(1R)-1-(4-chlorophenyl)ethyl]-6-oxo-2-phenyl-1,6-dihydropyrimidine-4-carboxamide], the inhibitory constant (Ki) at Rhesus PDE2A3 (setting [2]) is 48 nM; on human PDE2A1 (setting [3]) it was 41 nM.
On to `COc1ccc(Cc2nc(C(=O)N[C@@H](c3ccc(OC(F)(F)F)cc3)C(C)(C)C)cc(=O)[nH]2)cc1` [Example 467, N-{(1R)-2,2-dimethyl-1-[4-(trifluoromethoxy)phenyl]propyl}-2-(4-methoxybenzyl)-6-oxo-1,6-dihydropyrimidine-4-carboxamide], for which the Ki is 0.62 nM at Rhesus PDE2A3 (setting [2]) and 0.49 nM at human PDE2A1 (setting [3]).
Consider `COc1ccc(Cc2nc(C(=O)N[C@@H](c3ccc(OC(F)(F)F)c(F)c3)C(C)C)cc(=O)[nH]2)cc1F` [Example 515, 2-(3-fluoro-4-methoxybenzyl)-N-{(1R)-1-[3-fluoro-4-(trifluoromethoxy)phenyl]-2-methylpropyl}-6-oxo-1,6-dihydropyrimidine-4-carboxamide], for which the Ki turned out to be 1.1 nM on Rhesus PDE2A3 (setting [2]) and 1 nM on human PDE2A1 (setting [3]).
Regarding `CC(C)(C)[C@@H](NC(=O)c1cc(=O)[nH]c(C2CC2)n1)c1ccc(C(F)(F)F)cc1` [Example 262, 2-cyclopropyl-N-{(1R)-2,2-dimethyl-1-[4-(trifluoromethyl)phenyl]propyl}-6-oxo-1,6-dihydropyrimidine-4-carboxamide], the Ki stood at 0.65 nM on Rhesus PDE2A3 (setting [1]), 0.85 nM on Rhesus PDE2A3 (setting [2]) and 0.79 nM at human PDE2A1 (setting [3]).
For the compound `C[C@@H](NC(=O)c1cc(=O)[nH]c(-c2ncccn2)n1)c1ccc(C(F)(F)F)c(F)c1` [Example 98, N-{(1R)-1-[3-fluoro-4-(trifluoromethyl)phenyl]ethyl}-6-oxo-1,6-dihydro-2,2′-bipyrimidine-4-carboxamide], the values for the Ki on Rhesus PDE2A3 (setting [1]), at Rhesus PDE2A3 (setting [2]) and at human PDE2A1 (setting [3]) were 8.8 nM, 12 nM and 15 nM, respectively.
Turning to `O=C(N[C@@H](c1ccc(C2CC2)cc1)C1CC1)c1cc(=O)[nH]c(-c2ncccn2)n1` [Example 453, N-[(R)-cyclopropyl(4-cyclopropylphenyl)methyl]-6-oxo-1,6-dihydro-2,2′-bipyrimidine-4-carboxamide], the Ki worked out at 7.3 nM on Rhesus PDE2A3 (setting [2]) and 7.6 nM on human PDE2A1 (setting [3]).

For orientation: Ki means the equilibrium dissociation constant of an inhibitor or competing ligand from its target.
